What all share (assay type): in vivo
Series [1] has as its system green peach aphid (Myzus persicae). Description: Green peach aphid B.5.2, systemic, artificial diet under membrane. Particulars: 72 h, read-out: mortality in comparison with untreated controls. The text has this:
B.5.2. For evaluating control of green peach aphid (Myzus persicae) through systemic means the test unit consisted of 96-well-microtiter plates containing liquid artificial diet under an artificial membrane. The compounds were formulated using a solution containing 75% v/v water and 25% v/v DMSO. Different concentrations of formulated compounds were pipetted into the aphid diet, using a custom built pipetter, at two replications.
After application, 5-8 adult aphids were placed on the artificial membrane inside the microtiter plate wells. The aphids were then allowed to suck on the treated aphid diet and incubated at about 23±1° C. and about 50±5% relative humidity for 3 days. Aphid mortality and fecundity was then visually assessed.

For series [2], the system named is Cowpea Aphid (Aphis craccivora). As to the kind of experiment: Cowpea aphid, sprayed potted cowpea plants. The following applies: after 72 hours, read-out: mortality in comparison with untreated controls. As for the experimental part:
(§1) The active compound is dissolved at the desired concentration in a mixture of 1:1 (vol:vol) distilled water:acetone. Surfactant (Alkamuls® EL 620) is added at a rate of 0.1% (vol/vol). The test solution is prepared at the day of use.
Potted cowpea plants were colonized with approximately 50-100 aphids of various stages by manually transferring a leaf tissue cut from infested plant 24 hours before application. Plants were sprayed after the pest population has been recorded. Treated plants are maintained on light carts at about 28° C. Percent mortality was assessed after 72 hours.

Series [3] has as its system tobacco budworm (Heliothis virescens). Description: Tobacco budworm control, microtiter plate insect diet with eggs. Particulars: 120 h, 5 days, read-out: mortality in comparison with untreated controls (egg and larval mortality). As for the experimental part: For evaluating control of tobacco budworm (Heliothis virescens) the test unit consisted of 96-well-microtiter plates containing an insect diet and 15-25 H. virescens eggs.
The compounds were formulated using a solution containing 75% v/v water and 25% v/v DMSO. Different concentrations of formulated compounds were sprayed onto the insect diet at 10 μl, using a custom built micro atomizer, at two replications.
After application, microtiter plates were incubated at about 28±1° C. and about 80±5% relative humidity for 5 days. Egg and larval mortality was then visually assessed.

In series [4] the test system is vetch aphid (Megoura viciae). Description: Vetch aphid, broad bean leaf disks, contact or systemic. Particulars: foliar, 120 h, 5 days, read-out: mortality in comparison with untreated controls. As for the experimental part:
For evaluating control of vetch aphid (Megoura viciae) through contact or systemic means the test unit consisted of 24-well-microtiter plates containing broad bean leaf disks.
The compounds were formulated using a solution containing 75% v/v water and 25% v/v DMSO. Different concentrations of formulated compounds were sprayed onto the leaf disks at 2.5 μl, using a custom built micro atomizer, at two replications.
After application, the leaf disks were air-dried and 5-8 adult aphids placed on the leaf disks inside the microtiter plate wells. The aphids were then allowed to suck on the treated leaf disks and incubated at about 23±1° C. and about 50±5% relative humidity for 5 days. Aphid mortality and fecundity was then visually assessed.

The test system of series [5] is Rice Brown Plant Hopper (Nilaparvata lugens). Description: Rice brown plant hopper, sprayed rice seedlings. The following applies: after 72 hours, adults, read-out: mortality in comparison with untreated controls. As for the experimental part: Rice seedlings were cleaned and washed 24 hours before spraying. The active compounds were formulated in 50:50 acetone:water (vol:vol) and 0.1% vol/vol surfactant (EL 620) was added. Potted rice seedlings were sprayed with 5 ml test solution, air dried, placed in cages and inoculated with 10 adults. Treated rice plants were kept at about 28-29° C. and relative humidity of about 50-60%. Percent mortality was recorded after 72 hours.

The test system of series [6] is Rice Green Leafhopper (Nephotettix virescens). As to the kind of experiment: Rice green leafhopper, sprayed rice seedlings. The following applies: after 72 hours, adults, read-out: mortality in comparison with untreated controls. The protocol:
Rice seedlings were cleaned and washed 24 hours before spraying. The active compounds were formulated in 50:50 acetone:water (vol:vol), and 0.1% vol/vol surfactant (EL 620) was added. Potted rice seedlings were sprayed with 5 ml test solution, air dried, placed in cages and inoculated with 10 adults. Treated rice plants were kept at about 28-29° C. and relative humidity of about 50-60%. Percent mortality was recorded after 72 hours.

Series [7] has as its system Diamond Back Moth (Plutella xylostella). As to the kind of experiment: Diamond back moth, cabbage leaf dip. Particulars: foliar, 72 hours after treatment, 3rd instar larvae, read-out: mortality in comparison with untreated controls. As for the experimental part: as §1
Leaves of cabbage were dipped in test solution and air-dried. Treated leaves were placed in petri dish enlined with moist filter paper and inoculated with ten 3rd instar larvae. Mortality was recorded 72 hours after treatment. Feeding damages were also recorded using a scale of 0-100%.

Series [8] concerns Southern Armyworm (Spodoptera eridania), 2nd Instar Larvae. As to the kind of experiment: Southern armyworm, sprayed lima bean plants. Particulars: 96 h, 4 days after treatment, read-out: mortality in comparison with untreated controls. The protocol:
The active compounds were formulated in cyclohexanone as a 10,000 ppm solution supplied in tubes. The tubes were inserted into an automated electrostatic sprayer equipped with an atomizing nozzle and they served as stock solutions for which lower dilutions were made in 50% ace-tone:50% water (v/v). A nonionic surfactant (Kinetic®) was included in the solution at a volume of 0.01% (v/v).
Lima bean plants (variety sieva) were grown 2 plants to a pot and selected for treatment at the 1st true leaf stage. Test solutions were sprayed onto the foliage by an automated electrostatic plant sprayer equipped with an atomizing spray nozzle. The plants were dried in the sprayer fume hood and then removed from the sprayer. Each pot was placed into perforated plastic bags with a zip closure. About 10 to 11 armyworm larvae were placed into the bag and the bags zipped closed. Test plants were maintained in a growth room at about 25° C. and about 20-40% relative humidity for 4 days, avoiding direct exposure to fluorescent light (24 hour photoperiod) to prevent trapping of heat inside the bags. Mortality and reduced feeding were assessed 4 days after treatment, compared to untreated control plants.

For series [9], the system named is Green Peach Aphid (Myzus persicae, Mixed Life Stages). As to the kind of experiment: Green peach aphid B.5.1, sprayed bell pepper plants. Particulars: 120 h, after 5 days, read-out: mortality in comparison with untreated controls. The protocol: B.5.1. The active compounds were formulated by a Tecan liquid handler in 100% cyclohexanone as a 10,000 ppm solution supplied in tubes. The 10,000 ppm solution was serially diluted in 100% cyclohexanone to make interim solutions. These served as stock solutions for which final dilutions were made by the Tecan in 50% acetone:50% water (v/v) into 10 or 20 ml glass vials. A nonionic surfactant (Kinetic®) was included in the solution at a volume of 0.01% (v/v). The vials were then inserted into an automated electrostatic sprayer equipped with an atomizing nozzle for application to plants/insects.
Bell pepper plants at the first true-leaf stage were infested prior to treatment by placing heavily infested leaves from the main colony on top of the treatment plants. Aphids were allowed to transfer overnight to accomplish an infestation of 30-50 aphids per plant and the host leaves were removed. The infested plants were then sprayed by an automated electrostatic plant sprayer equipped with an atomizing spray nozzle. The plants were dried in the sprayer fume hood, removed, and then maintained in a growth room under fluorescent lighting in a 24-hr photoperiod at about 25° C. and about 20-40% relative humidity. Aphid mortality on the treated plants, relative to mortality on untreated control plants, was determined after 5 days.

For series [10], the system named is Green Soldier Stink Bug (Nezara viridula). Description: Green soldier stink bug, sprayed soybean pods in Petri dishes. Particulars: 120 h, after 5 days, late 3rd instar, read-out: mortality in comparison with untreated controls. The protocol:
The active compound was dissolved at the desired concentration in a mixture of 1:1 (vol:vol) distilled water:aceteone. Surfactant (Kinetic® HV) is added at a rate of 0.01% (vol/vol). The test solution was prepared at the day of use.
Soybean pods were placed in 90×50 mm glass Petri dishes lined with moist filter paper and inoculated with ten late 3rd instar N. viridula. Using a hand atomizer, an approximately 2 ml solution is sprayed into each Petri dish. Treated cups were kept at about 25-26° C. and relative humidity of about 65-70%. Percent mortality was recorded after 5 days.

In series [11] the test system is Silverleaf Whitefly (Bemisia argentifolii) (Adults). As to the kind of experiment: Silverleaf whitefly adults, sprayed cotton plants. The following applies: at 300, 3 days after treatment. The text has this: The active compounds were formulated in cyclohexanone as a 10,000 ppm solution supplied in tubes. The tubes were inserted into an automated electrostatic sprayer equipped with an atomizing nozzle and they served as stock solutions for which lower dilutions were made in 50% ace-tone:50% water (v/v). A non-ionic surfactant (Kinetic®) was included in the solution at a volume of 0.01% (v/v).
Cotton plants at the cotyledon stage (one plant per pot) were sprayed by an automated electrostatic plant sprayer equipped with an atomizing spray nozzle. The plants were dried in the sprayer fume hood and then removed from the sprayer. Each pot was placed into a plastic cup and about 10 to 12 whitefly adults (approximately 3-5 days old) were introduced. The insects were collected using an aspirator and a nontoxic Tygon® tubing connected to a barrier pipette tip. The tip, containing the collected insects, was then gently inserted into the soil containing the treated plant, allowing insects to crawl out of the tip to reach the foliage for feeding. Cups were covered with a reusable screened lid. Test plants were maintained in a growth room at about 25° C. and about 20-40% relative humidity for 3 days, avoiding direct exposure to fluorescent light (24-hour photoperiod) to prevent trapping of heat inside the cup. Mortality was assessed 3 days after treatment, compared to untreated control plants.

Where [12] appears, read: at 2500 ppm, 3 days, systemic, artificial diet.

One may read the mortality as the share of the test organisms that died.

Where two headings read alike, the source gives them in different places.

Take `COc1ccc(-c2c([O-])n3c([n+](C)c2=O)N(C)CC3c2cnc(Cl)s2)cc1` (centres unmarked) [Compound C-1, 3-(2-chlorothiazol-5-yl)-6-(4-methoxyphenyl)-1,8-dimethyl-7-oxo-2,3-dihydroimidazo[1,2-a]pyrimidin-8-ium-5-olate]: the mortality at 2500 ppm in series [1] (setting [12]) was more than 75%. Besides, the mortality at 300 ppm in series [2] was more than 75%.
As to `C[n+]1c([O-])c(-c2ccccc2)c(=O)n2c1N(C(=O)OC(C)(C)C)CC2c1cnc(Cl)s1` (centres unmarked) [Compound C-2], in series [1] (setting [12]), the mortality at 2500 ppm is more than 75%.
For `CN1CC(c2cnc(Cl)s2)n2c1[n+](C)c([O-])c(-c1ccccc1)c2=O` (centres unmarked) [Compound C-3], the mortality at 2500 ppm in [3], in series [1] (setting [12]) and in series [4] was more than 75% each time. In addition, the mortality at 300 ppm in [5], in series [6] and in [2] was more than 75% in each case.
Consider `CN1CC(c2cnc(Cl)s2)n2c1[n+](C)c([O-])c(-c1cc(Cl)cc(Cl)c1)c2=O` (centres unmarked) [Compound C-4], for which the mortality at 2500 ppm in [3], in series [1] (setting [12]) and in series [4] was more than 75% in each case. Besides, the mortality at 300 ppm in series [5], in series [7], in series [6], in [2] and in series [8] was more than 75% in each case.
Consider `CN1CC(c2cnc(Cl)s2)n2c1[n+](C)c([O-])c(-c1cccc(C(F)(F)F)c1)c2=O` (centres unmarked) [Compound C-5], for which the mortality at 2500 ppm in series [3], in [1] (setting [12]) and in series [4] was more than 75% in each case. Moreover, the mortality at 300 ppm in series [9], in [5], in [7], in [6], in [10] and in series [2] was more than 75% in each case. In addition, the mortality at 300 ppm in series [8] was more than 75%. In addition, the “mortality in comparison with untreated controls” value in series [11] is on record as “over 75%”.
For `CN1C[C@@H](c2cnc(Cl)s2)n2c1[n+](C)c([O-])c(-c1cccc(C(F)(F)F)c1)c2=O` [Compound C-20], the mortality at 2500 ppm in [1] (setting [12]) and in [4] was more than 75% throughout. Besides, the mortality at 300 ppm in series [10], in series [2] and in series [8] was more than 75% each time.
For `CN1CC(c2ccc(Cl)nc2)n2c1[n+](C)c([O-])c(-c1cc(Cl)cc(Cl)c1)c2=O` (centres unmarked) [Compound C-21], in series [1], the mortality at 2500 ppm is more than 75%.
Same read-out and setting: next, `C[n+]1c2n(c([O-])c(-c3ccccc3)c1=O)C(c1cnc(Cl)s1)CN2` (centres unmarked) [Compound C-25]: more than 75%.

The values above are taken from US11399543B2, “Substituted 1,2,3,5-tetrahydroimidazo[1,2-a]pyrimidiniumolates for combating animal pests” (BASF SE, priority 2017, dated 2022).
